This is an account of results in patent US8889731B2, “Compounds, compositions and methods for repelling blood-feeding arthropods and deterring their landing and feeding” (Contech Enterprises Inc., priority 2007, dated 2014).

The structures appear in SMILES notation.

The subject of one assay is mosquitoes. As to the kind of experiment: General bioassay procedure with garlic oil, its components and fractions (mosquito species not given). Format: in vivo. On the procedure: (§1) Candidate repellents and deterrents were bioassayed according to a modified protocol from the World Health Organization (1996). At least 1 hour prior to each bioassay, 75 host-seeking non blood-fed, nulliparous, 5- to 8-day-old female Aedes aegypti, Anopheles gambiae or Culex quinquefasciatus were placed into a wood-framed cage (26.5 cm on each side and 42.5 cm high) with a wooden floor, screened mesh sides and top, and a clear acrylic front fitted with a cotton stockinette sleeve (10 cm diameter). The test subject's arm was covered with an elbow-length polyethylene glove with an excised patch (16.6 cm long, 6 cm wide) to expose the ventral forearm of the test subject. Candidate deterrents were formulated in mineral (paraffin) oil and applied to the exposed forearm 5 min prior to inserting the arm into the cage. The inserted arm remained in the cage for 3 min every 30 min. Prior to each 3-min bioassay period, the hand of the untreated arm was inserted into the cage to ascertain that it received 10 bites within 30 sec as an indication of “biting pressure”.
(§2) The bioassay was terminated when the treated arm received ≧2 bites in one 3-min bioassay period or one bite in each of two consecutive bioassay periods. The time elapsed from experiment initiation to first bite was recorded as deterrent failure or complete protection time.
(§3) N,N-diethyl-m-toluamide formulated in ethanol at a corresponding dose served as a positive control, and mineral oil by itself served as a negative control. On each day, only one candidate compound was tested, ensuring that any residual material in the chamber had disappeared before the next bioassay.
Garlic oil (Allium sativum—Mexico; Clearwater Soap Works, Box 1775 RR1, Clearwater, BC V0E 1N0, Canada) was formulated in mineral oil and tested using the general bioassay procedure described in EXAMPLE 2 at a dose of 0.1 mg per cm^2 of arm surface. It expressed repellence and deterrence for ˜30 min.
Some of the 10 components in FIG. 1 were bioassayed singly (see general bioassay procedure) and in various combinations, all of which were as deterrent to mosquitoes as garlic oil.
To determine the most deterrent component(s) in garlic oil, it was fractionated by HPLC into four fractions, each containing one or more of the EAD-active components (compounds 1-10 in FIG. 1 and 11-14 in TABLE 2). Each fraction was then bioassayed and shown to be similarly effective in repelling and deterring mosquitoes.
(§4) Components with high molecular weight (>250 daltons) are advantageous in that they: 1) dissipate slowly from treated surfaces; 2) provide long-lasting protection against mosquitoes and 3) convey little, if any, offensive smell. The relative abundance of such components was enhanced by treating garlic oil under vacuum, thus stripping away lower-boiling components. In GC-EAD analyses of the high-boiling residue, four components elicited responses from mosquito antennae.

The subject of assay [1] is male or female Aedes aegypti antennae. Kind of assay: Coupled gas chromatographic-electroantennographic detection (GC-EAD) of garlic oil extract. As to the method:
FIG. 1 illustrates flame ionization detector (FID) and electroantennograhic detector (EAD: male or female Aedes aegypti antennae) responses to aliquots of the low boiling temperature portion of garlic oil extract. Chromatography: Hewlett Packard (HP) gas chromatograph equipped with a fused silica column (30 m×0.32 mm ID) coated with DB-5; injector and detector temperature: 250° C.; temperature program: 50° C.
Aliquots of garlic oil extracts were then subjected to coupled gas chromatographic-electroantennographic detection (GC-EAD) analysis. Fourteen components (10 shown in FIG. 1) elicited responses from female or male mosquito antennae. Some of these components were isolated by high-performance liquid chromatography (HPLC) for identification by nuclear magnetic resonance spectroscopy (NMR). Other components were identified (compounds 11-14 in TABLE 2) by coupled GC-mass spectrometry and by retention index calculations. […] Four of the 10 components in FIG. 1 were tentatively identified by comparing their mass spectra and retention indices with those reported in the literature (Block et al. 1998).
as §4

In another assay the test system is Aedes aegypti. As to the kind of experiment: Arm-in-cage repellent/deterrent bioassay on exposed human forearm (modified WHO protocol), Aedes aegypti. The format is in vivo. As to conditions: for pest or weed control at 0.1 mg/cm2 / pest or weed control at 0.5 mg/cm2: Aedes aegypti, topical, (C-T)/C x 100 at time of failure, read-out: Percent repellence. As to the method:
as §1, §2, §3
To determine the repellence and deterrence of 8-allylsulfanyloctan-1-ol against Aedes aegypti, a 5%, 10% or 25% formulation of 8-allylsulfanyloctan-1-ol in mineral oil was applied in Experiments 1-3 at a dose of 1.5 mg (total composition) per cm^2 to the skin of the test person, and was bioassayed according to the protocol described under EXAMPLE 2. In Experiment 4, mineral oil by itself served as a negative control and was bioassayed at the same dose (1.5 mg per cm^2) as in Experiments 1-3. Each of Experiments 1-4 was replicated four times.
To compare the repellence and deterrence against Aedes aegypti caused by 8-allylsulfanyloctan-1-ol as a single active ingredient and by 8-allylsulfanyloctan-1-ol in combination with vanillin as a second active ingredient, we tested a 6.7% emulsion of vanillin (Experiment 14), a 6.7% emulsion of 8-allylsulfanyloctan-1-ol (Experiment 15), and a 13.4% emulsion of 8-allylsulfanyloctan-1-ol plus vanillin (1:1 ratio) (Experiment 16). 8-Allylsulfanyloctan-1-ol and vanillin were formulated in Emulsion No. 1 (see EXAMPLE 9). In each of Experiments […], test stimuli were applied at a dose of 1.5 mg per cm^2 to the skin of the test person, and were bioassayed according to the protocol described under EXAMPLE 2. In Experiment 17, Emulsion No. 1 served as a positive control and was tested at the same dose (1.5 mg per cm^2) as in Experiments 14-16.
To be able to compare the repellence and deterrence caused by N,N-diethyl-m-toluamide and by 8-allylsulfanyloctan-1-ol plus vanillin in Emulsion No. 1 (EXAMPLE 9), Experiment 26 tested a 6.7% formulation of N,N-diethyl-m-toluamide in ethanol (the best formulant for DEET) for protection from bites by Aedes egypti. In each replicate, a dose of 1.5 mg per […] was applied to the skin of the test person and bioassayed according to the protocol described under EXAMPLE 2.
To be able to further compare the deterrence caused by N,N-diethyl-m-toluamide with that caused by 8-allylsulfanyloctan-1-ol plus vanillin, Experiment 27 tested a 10.4% formulation of N,N-diethyl-m-toluamide in ethanol, and Experiment 28 tested 8-allylsulfanyloctan-1-ol (10.4%) plus vanillin (7.9%) in Emulsion No. 2 (EXAMPLE 10). […]

In another assay the test system is Anopheles gambiae. Kind of assay: Arm-in-cage repellent/deterrent bioassay on exposed human forearm (modified WHO protocol), Anopheles gambiae. Format: in vivo. As to the method: as §1, §2, §3
To determine the repellence and deterrence of 8-allylsulfanyloctan-1-ol against Anopheles gambiae, a 2%, 5% or a 10% formulation of 8-allylsulfanyloctan-1-ol in mineral oil was applied in Experiments 5-7 at a dose of 1.5 mg per cm^2 to the skin of the test person, and was bioassayed according to the protocol described under EXAMPLE 2. In Experiment 8, mineral oil by itself served as a negative control and was tested at the same dose (1.5 mg per cm^2) as in Experiments 5-7. Each of Experiments 5-8 was replicated 4 times.
To be able to compare the repellence and deterrence caused N,N-diethyl-m-toluamide (DEET), and by 8-allylsulfanyloctan-1-ol, Experiment 13 tested a 2% formulation of N,N-diethyl-m-toluamide in ethanol (the best formulant for this compound) for protection from bites by Anopheles gambiae. A dose of 1.5 mg per cm^2 was applied to the skin of the test person and bioassayed according to the protocol described under EXAMPLE 2.
To compare the repellence and deterrence against Anopheles gambiae caused by 8-allyl-sulfanyloctan-1-ol as a single active ingredient and by 8-allylsulfanyloctan-1-ol in combination with vanillin as a second active ingredient, we tested a 6.7% emulsion of vanillin (Experiment 18), a 6.7-% emulsion of 8-allylsulfanyl-octan-1-ol (Experiment 19) and a 13.4% emulsion of 8-allylsulfanyloctan-1-ol plus vanillin (1:1 ratio) (Experiment 20). 8-Allylsulfanyloctan-1-ol and vanillin were formulated in Emulsion No. 1 (see EXAMPLE 9). In each of Experiments 18-20, test stimuli were applied at a dose of 1.5 mg per cm^2 to the skin of the test person, and were bioassayed according to the protocol described under EXAMPLE 2. In Experiment 21, Emulsion No. 1 served as a positive control and was tested at the same dose (1.5 mg per cm^2) as in experiments 18-20. Each of Experiments 18-21 was replicated three times.

The next assay concerns Culex quinquefasciatus. Kind of assay: Arm-in-cage repellent/deterrent bioassay on exposed human forearm (modified WHO protocol), Culex quinquefasciatus. Format: in vivo. As to conditions: 6.7% single active in Emulsion No. 1 (FIG. 9 legend: 2.0%), 1.5 mg per cm^2, Experiments 22, 23. As to the method:
as §1, §2, §3
To determine the repellence and deterrence of 8-allylsulfanyloctan-1-ol against Culex quinquefasciatus, a 2% and 5% or a 10% formulation of 8-allylsulfanyloctan-1-ol in mineral oil was applied in Experiments 9-11 at a dose of 1.5 mg per cm^2 to the skin of the test person, and was bioassayed according to the protocol described under EXAMPLE 2. In Experiment 12, mineral oil by itself served as a negative control and was tested at the same dose (1.5 mg per cm^2) as in Experiments […]. Each of Experiments 9-11 was replicated 4 times.
To compare the repellence and deterrence against Culex quinquefasciatus caused by 8-allylsulfanyloctan-1-ol as a single active ingredient and by 8-allylsulfanyloctan-1-ol in combination with vanillin as a second active ingredient, we tested a 6.7% emulsion of vanillin (Experiment 22), a 6.7% emulsion of 8-allylsulfanyloctan-1-ol (Experiment 23) and a 13.4% emulsion of 8-allylsulfanyloctan-1-ol plus vanillin (1:1 ratio) (Experiment 24). 8-Allylsulfanyloctan-1-ol and vanillin were formulated in Emulsion No. 1 (see EXAMPLE 9). In each of Experiments […], test stimuli were applied at a dose of 1.5 mg per cm^2 to the skin of the test person, and were bioassayed according to the protocol described under EXAMPLE 2. In Experiment 25, Emulsion No. 1 served as a positive control and was tested at the same dose (1.5 mg per cm^2) as in Experiments 22-24. Each of Experiments 22-25 was replicated three times.

[2] abbreviates: Dosage 0.1 mg/cm^2, 0 = immediate failure.

With `C=CCSSCC1CCC=CS1` (centres unmarked) [Compound 13, 2-(2,3-dithia-5-hexenyl)-3,4-dihydro-2(H)-thiopyran], the “repellent and deterrent effect in bioassays (in words)” value in the assay on mosquitoes was “strong repellent and deterrent effect”. Besides, in assay [1], the “electroantennographic (EAD) response of mosquito antennae” value is on record as “Antennal stimulatory”.
In the case of `C=CCSSCC1CC=CSC1` (centres unmarked) [Compound 14, 3-(2,3-dithia-5-hexenyl)-3,4-dihydro-2(H)-thiopyran], the “repellent and deterrent effect in bioassays (in words)” value in the assay on mosquitoes was “strong repellent and deterrent effect”. Moreover, in assay [1], the “electroantennographic (EAD) response of mosquito antennae” value is listed as “Antennal stimulatory”.
Regarding `C=CCSSc1ccccc1SSCC=C` [Compound 15, 1,2-bis-(1,2-dithia-4-pentenyl)-benzene], in the assay on Aedes aegypti (Dosage 0.1 mg/cm^2), the pest or weed control at 0.1 mg/cm2 stood at 92%. In addition, the Failure time with Aedes aegypti (setting [2]) is on record as 34 min.
`C=CCSSC/C=C/c1ccccc1` [Compound 16, (E)-4,5-dithia-1,7-octadien-1-yl-benzene]: in the assay with Aedes aegypti (Dosage 0.1 mg/cm^2), the pest or weed control at 0.1 mg/cm2 turned out to be 89%. Also, in the assay with Aedes aegypti (Dosage 0.5 mg/cm^2), the pest or weed control at 0.5 mg/cm2 was found to be 92% and the Failure time came out at 36 min. Also, the Failure time in the assay on Aedes aegypti (setting [2]) amounted to 35 min.
In the case of `C=CCSCCCSCC=C` [Compound 17, 4,8-dithiaundeca-1,10-diene], the pest or weed control at 0.1 mg/cm2 in the assay on Aedes aegypti (Dosage 0.1 mg/cm^2) stood at 89%. In the assay on Aedes aegypti (Dosage 0.5 mg/cm^2), the pest or weed control at 0.5 mg/cm2 turned out to be 97%. In addition, the values for the Failure time in the assay with Aedes aegypti (setting [2]) and with Aedes aegypti (Dosage 0.5 mg/cm^2) were 0 min and 36 min, respectively.
For `C=CCSCCCCCCSCC=C` [Compound 18, 4,11-dithiatetradeca-1,13-diene], in the assay with Aedes aegypti (Dosage 0.5 mg/cm^2), the pest or weed control at 0.5 mg/cm2 is 93% and the Failure time amounted to 67 min.
In the case of `C=CCSCCCCCCCCSCC=C` [Compound 19, 4,13-dithiahexadeca-1,15-diene], in the assay with Aedes aegypti (Dosage 0.1 mg/cm^2), the pest or weed control at 0.1 mg/cm2 is 93%. Besides, in the assay on Aedes aegypti (Dosage 0.5 mg/cm^2), the pest or weed control at 0.5 mg/cm2 came out at 97%. Also, the Failure time in the assay with Aedes aegypti (setting [2]) is on record as 0 min; in the assay with Aedes aegypti (Dosage 0.5 mg/cm^2), 102 min.
On to `C=CCOCCCCCCCCCCOCC=C` [Compound 20, 1,10-bis-allyloxy-decane], for which, in the assay with Aedes aegypti (Dosage 0.1 mg/cm^2), the pest or weed control at 0.1 mg/cm2 is 81%. Moreover, in the assay on Aedes aegypti (setting [2]), the Failure time was determined as 0 min. For the same compound, the “had any repellence or deterrence in bioassays” value in the assay with Aedes aegypti (see TABLE 2, 0.1 mg/cm^2) was “neither”.
Turning to `C=CCSCCCCCCCCCO` [Compound 22, 9-allylsulfanylnonan-1-ol], the Failure time in the assay on Aedes aegypti (Dosage 0.05 mg/cm^2) is 33 min.
On the same count and under the same terms, the value for `C=CCSCCCCCCC(C)O` (centres unmarked) [Compound 23, 8-allylsulfanyloctan-2-ol] was 99 min.
Regarding `CCN(CC)C(=O)c1cccc(C)c1` [N,N-diethyl-m-toluamide, reference compound], in the assay with Anopheles gambiae (2% DEET in ethanol vs 2% 8-allylsulfanyloctan-1-ol in mineral oil), the “duration of protection relative to 2% 8-allylsulfanyloctan-1-ol (297 min)” value was “one sixth”. The “protection from bites, average duration” value is on record as 66 min in the assay on Anopheles gambiae (2% formulation in ethanol, 1.5 mg per cm^2, Experiment 13); 197 min with Aedes aegypti (6.7% formulation in ethanol, 1.5 mg per cm^2, Experiment 26); 231 min in the assay with Aedes aegypti (10.4% formulation in ethanol, 1.5 mg per cm^2, Experiment 27).
`COc1cc(C=O)ccc1O` [vanillin]: the “protection from bites, average duration” value with Anopheles gambiae (6.7% single active in Emulsion No. 1 (FIG. 8 legend: 2.0%), 1.5 mg per cm^2, Experiments 18, 19) is on record as 110 min; in the assay on Aedes aegypti (6.7% single active in Emulsion No. 1, 1.5 mg per cm^2, Experiments 14, 15), 44 min; in the assay with Culex quinquefasciatus, 88 min.
